What was measured:
[1] = system: Bifidobacterium longum BB-536; assay: Preliminary Test 1: change over time in medium turbidity (growth curve) with different sugar sources; type: cell-based; details: sugar in place of glucose in basic medium; up to 24 hours of cultivation at 37° C.; turbidity 660 nm
Method: This test was performed in order to investigate changes over time in medium turbidity and determine if measurement of turbidity after a certain cultivation time is valid for assessing the speed with which the Lactobacilluls bifidus consumes sugar:
Bifidobacterium longum BB-536, which is a microorganism belonging to the genus Bifidobacterium, derived from humans that was separated and identified from the feces of healthy adults by conventional methods (Tomonari Mitsuoka, ed., “Research of Bifidus Bacteria,” pages 40˜60, Zaidanhojin Nihon Bifizusukin Senta (Japan Bifidus Bacteria Center), 1994) was used in this test. Furthermore, this strain is stored by the inventors and is available for any person as needed. […]
First, 0.5 ml of each of the above-mentioned cultivation solutions of Lactobacillus bifidus were inoculated in every 2 of the above-mentioned test media and turbidity was immediately measured with a quartz cell at a wavelength of 660 nm and light path length of 10 mm using a spectrophotometer (Hitachi Seisakusho Co., Ltd.). […] Turbidity was measured under the same conditions as previously described at 2-hour intervals and the mean turbidity of the 2 test tubes was calculated as the determination.
Moreover, basic medium containing glucose was simultaneously used as the control and turbidity was similarly determined. […]

[2] = system: Bifidobacterium adolescentis BB-102; assay: Consumption speed-accelerating effect (increase in turbidity after 8 hours, test medium / glucose basic medium); type: cell-based; details: for Consumption speed-accelerating effect, Bifidobacterium adolescentis: Table 1, single oligosaccharide in place of glucose; for Consumption speed-accelerating effect, B. adolescentis: Table 2, raffinose + lactulose, total 2.0% in place of 2.0% glucose
Method: (§1) Bifidobacterium bifidum BB-225, Bifidobacterium adolescentis BB-102, Bifidobacterium breve BB-308, Bifidobacterium longum BB-536. The basic culture medium and pre-cultivation solution were prepared as in above-mentioned Preliminary Test 1. The test culture medium was prepared using the following 7 types of oligosaccharides, which are widely used as Lactobacillus bifidus growth factor, in place of glucose: Raffinose (Nihon […] Seito Co., Ltd.), lactulose (Morinaga Milk Industry Co., Ltd.), galacto-oligosaccharide (Nisshin Seito Co., Ltd.), lactosucrose (Hayashibara Shoji Co., Ltd.), fructo-oligosaccharide (Meiji Seika Co., Ltd.), isomalto-oligosaccharide (Hayashibara Shoji Co., Ltd.), and xylo-oligosaccharide (Santori Co., Ltd.). Cultivation was performed as in above-mentioned Preliminary Test 1 and the sugar consumption speed was calculated by the following formula and comparative studies were performed, using the increment increase in turbidity of each medium up to 8 hours later as the index. Consumption speed-accelerating effect (fold)=(increase in turbidity after 8 hours in test medium)/(increase in turbidity after 8 hours in basic medium) The basic culture medium and pre-cultivation solution were prepared as for above-mentioned Preliminary Test 1. The test culture medium was prepared changing the total amount of each of the desired raffinose and oligosaccharide to 2.0% in place of the 2.0% glucose in the basic medium and the addition ratio to 13 steps. The oligosaccharides that were used were the same as in above-mentioned Preliminary Test 2, and cultivation, determination of turbidity and assessment of the sugar consumption speed-accelerating activity were performed by the same methods as in above-mentioned Preliminary Test 2.

[3] = system: Bifidobacterium bifidum BB-225; assay: as above; type: cell-based; details: for Consumption speed-accelerating effect, Bifidobacterium bifidum: Table 1, single oligosaccharide in place of glucose; for Consumption speed-accelerating effect, B. bifidum: Table 2, raffinose + lactulose, total 2.0% in place of 2.0% glucose
Method: as §1

[4] = system: Bifidobacterium breve BB-308; assay: as above; type: cell-based; details: for Consumption speed-accelerating effect, Bifidobacterium breve: Table 1, single oligosaccharide in place of glucose; for Consumption speed-accelerating effect, B breve: Table 2, raffinose + lactulose, total 2.0% in place of 2.0% glucose
Method: as §1

[5] = system: Bifidobacterium longum BB-536; assay: as above; type: cell-based; details: for Consumption speed-accelerating effect, Bifidobacterium longum: Table 1, single oligosaccharide in place of glucose; for Consumption speed-accelerating effect, B longum: Table 2, raffinose + lactulose, total 2.0% in place of 2.0% glucose
Method: as §1

[6] = system: 4 species of Lactobacillus bifidus; assay: Mean consumption speed-accelerating activity of 4 species of test bacteria; type: cell-based, Bifidobacterium adolescentis, breve, bifidum, longum; details: 8 hours; for Mean consumption speed-accelerating activity of 4 species: Table 2, raffinose + lactulose; for Mean consumption speed-accelerating activity of 4 species / Mean consumption speed-accelerating activity of 4 species of test bacteria: total 2.0% in place of 2.0% glucose; for Mean consumption speed-accelerating activity of 4 species of test bacteria: Table 3, raffinose + other oligosaccharide
Method: Bifidobacterium bifidum BB-225, Bifidobacterium adolescentis BB-102, Bifidobacterium breve BB-308, Bifidobacterium longum BB-536. Cultivation was performed as in above-mentioned Preliminary Test 1 and the sugar consumption speed was calculated by the following formula and comparative studies were performed, using the increment increase in turbidity of each medium up to 8 hours later as the index. Consumption speed-accelerating effect (fold)=(increase in turbidity after 8 hours in test medium)/(increase in turbidity after 8 hours in basic medium) The same four species of Lactobacillus bifidus as used in above-mentioned Preliminary Test 2 were employed. The basic culture medium and pre-cultivation solution were prepared as for above-mentioned Preliminary Test 1. The test culture medium was prepared changing the total amount of each of the desired raffinose and oligosaccharide to 2.0% in place of the 2.0% glucose in the basic medium and the addition ratio to 13 steps. The oligosaccharides that were used were the same as in above-mentioned Preliminary Test 2, and cultivation, determination of turbidity and assessment of the sugar consumption speed-accelerating activity were performed by the same methods as in above-mentioned Preliminary Test 2. The consumption speed-accelerating effect of each of the 4 strains of Lactobaccilus bifidus tested, as well as the average consumption speed-accelerating effect of the 4 species tested, in a culture medium that used a combination of raffinose and lactulose are shown in Table 2 and the average consumption speed-accelerating effect in each of the 4 species of bacteria tested with various test media other than medium using raffinose and lactulose are shown in Table 3.

Compound: OC[C@H]1O[C@H](OC[C@H]2O[C@H](O[C@]3(CO)O[C@H](CO)[C@@H](O)[C@@H]3O)[C@H](O)[C@@H](O)[C@@H]2O)[C@H](O)[C@@H](O)[C@H]1O [Raffinose]
- sugar consumption speed compared with glucose medium (FIG. 1) [1]: higher consumption speed than the medium that used glucose
- Consumption speed-accelerating effect, Bifidobacterium adolescentis [2]: 1.02 fold
- Consumption speed-accelerating effect, B. adolescentis [2]: (1.02) fold
- Consumption speed-accelerating effect, Bifidobacterium bifidum [3]: 0.02 fold
- Consumption speed-accelerating effect, B. bifidum [3]: (0.02) fold
- availability for Bifidobacterium bifidus (in words) ([3]; single oligosaccharide in place of glucose): did not show availability
- Consumption speed-accelerating effect, Bifidobacterium breve [4]: 1.15 fold
- Consumption speed-accelerating effect, B breve [4]: (1.15) fold
- Consumption speed-accelerating effect, Bifidobacterium longum [5]: 1.09 fold
- Consumption speed-accelerating effect, B longum [5]: (1.09) fold
- Mean consumption speed-accelerating activity of 4 species [6]: (0.82) fold
- Mean consumption speed-accelerating activity of 4 species of test bacteria [6]: (0.82) fold

Compound: OC[C@H]1O[C@@H](O[C@@H]2[C@@H](CO)OC(O)(CO)[C@H]2O)[C@H](O)[C@@H](O)[C@H]1O (mixture of isomers) [Lactulose]
- sugar consumption speed compared with glucose medium (FIG. 1) [1]: approximately the same sugar consumption speed as the medium that used glucose
- Consumption speed-accelerating effect, Bifidobacterium adolescentis [2]: 0.97 fold
- Consumption speed-accelerating effect, B. adolescentis [2]: (0.97) fold
- Consumption speed-accelerating effect, Bifidobacterium bifidum [3]: 0.96 fold
- Consumption speed-accelerating effect, B. bifidum [3]: (0.96) fold
- Consumption speed-accelerating effect, Bifidobacterium breve [4]: 1.08 fold
- Consumption speed-accelerating effect, B breve [4]: (1.08) fold
- Consumption speed-accelerating effect, Bifidobacterium longum [5]: 0.92 fold
- Consumption speed-accelerating effect, B longum [5]: (0.92) fold
- consumption speed-accelerating activity by Lactobacillus bifidus (in words) ([6]; 4 species, compared with glucose medium): relatively strong consumption speed-accelerating activity
- Mean consumption speed-accelerating activity of 4 species [6]: (0.98) fold

Compound: OC[C@H]1O[C@@H](O[C@H]2[C@H](O)[C@@H](O)[C@@H](O[C@]3(CO)O[C@H](CO)[C@@H](O)[C@@H]3O)O[C@@H]2CO)[C@H](O)[C@@H](O)[C@H]1O [Lacto-sucrose, lactosucrose]
- Consumption speed-accelerating effect, Bifidobacterium adolescentis [2]: 0.83 fold
- Consumption speed-accelerating effect, Bifidobacterium bifidum [3]: 0.03 fold
- Consumption speed-accelerating effect, Bifidobacterium breve [4]: 0.87 fold
- Consumption speed-accelerating effect, Bifidobacterium longum [5]: 0.78 fold
- Mean consumption speed-accelerating activity of 4 species of test bacteria [6]: (0.63) fold
